Structures can show the parent of a compound that is named as a salt.

One may read the IC50 as the concentration at which inhibition is half-maximal.

This assay concerns the target T1, TBK1 (Homo sapiens, UniProt Q9UHD2).
T1 construct: All protein kinases were of human origin and encoded full length proteins, unless indicated otherwise; His6; made in house; host or cells: insect Sf21 cells
T1 sequence (Q9UHD2 1-729): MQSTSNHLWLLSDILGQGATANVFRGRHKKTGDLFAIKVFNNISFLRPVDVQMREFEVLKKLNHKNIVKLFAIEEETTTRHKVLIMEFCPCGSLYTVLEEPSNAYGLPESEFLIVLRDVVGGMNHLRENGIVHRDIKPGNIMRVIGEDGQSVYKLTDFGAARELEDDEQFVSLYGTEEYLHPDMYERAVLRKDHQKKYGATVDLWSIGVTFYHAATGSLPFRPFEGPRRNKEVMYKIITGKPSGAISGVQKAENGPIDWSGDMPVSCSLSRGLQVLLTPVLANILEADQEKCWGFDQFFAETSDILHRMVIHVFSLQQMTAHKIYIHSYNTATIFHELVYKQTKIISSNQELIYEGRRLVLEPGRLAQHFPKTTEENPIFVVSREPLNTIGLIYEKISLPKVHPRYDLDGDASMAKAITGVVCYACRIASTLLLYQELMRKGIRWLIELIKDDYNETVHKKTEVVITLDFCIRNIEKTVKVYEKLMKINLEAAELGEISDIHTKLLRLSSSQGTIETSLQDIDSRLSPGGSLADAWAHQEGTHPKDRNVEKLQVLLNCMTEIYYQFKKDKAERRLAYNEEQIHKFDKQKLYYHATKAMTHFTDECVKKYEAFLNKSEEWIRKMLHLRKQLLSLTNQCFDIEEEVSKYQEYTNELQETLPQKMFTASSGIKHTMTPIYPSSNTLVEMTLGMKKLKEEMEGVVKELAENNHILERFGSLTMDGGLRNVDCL
Briefly: TBK1 protein kinase assay ([γ-33P]ATP, P81 filterplates). It is filed as biochemical. The conditions noted are these: 50 μM ATP; read-out: Potency (TBK1 IC50 potency score). An excerpt: All protein kinases were of human origin and encoded full length proteins, unless indicated otherwise. They were either expressed as glutathione S-transferase (GST) fusion proteins in Escherichia Coli or as hexahistidine (His6)-tagged proteins in insect Sf21 cells. GST fusion proteins were purified by affinity chromatography on glutathione-Sepharose, and His6-tagged proteins on nickel/nitriloacetate-agarose. The procedures for expressing some of the protein kinases used herein have been detailed previously.^8,9 The following sections outline the DNA vectors synthesised and the procedures used to express and purifying protein kinases that have not been reported previously.
The following kinases were expressed in Sf21 cells: Aurora B and Aurora C, extra-cellular signal-regulated kinase 8 (ERK8), microtubule affinity regulating kinase 3 (MARK3), protein kinase Bα[118-480][S473D], protein kinase Bβ (PKBβ[120-481][S474D], 3-phosphoinositide-dependent protein kinase-1 [52-556]
Assays were performed for 30 min using Multidrop Micro reagent dispensers (Thermo Electron Corporation, Waltham, Mass. 02454, USA) in a 96-well format. The concentration of magnesium acetate in the assays was 10 mM and the [γ-33P] ATP (800 cpm/pmol) was used at 5, 20 or 50 μM as indicated, in order to be at or below the Km for ATP for each enzyme. Protein kinases assayed at 5 μM ATP were: —ERK1, ERK8, PKBα, MARK3, Aurora C. Protein kinases assayed at 20 μM ATP were: —JNK1, PDK1, CHK1, CHK2, CDK2 and Aurora B. Protein kinases assayed at 50 μM ATP were: —MNK2, IKKepsilon and TBK1.
The assays were initiated with MgATP, stopped by addition of 5 μl of 0.5 M orthophosphoric acid and spotted on to P81 filterplates using a unifilter harvester (PerkinElmer, Boston, Mass. 02118, USA). The IC50 values of inhibitors were determined after carrying out assays at 10 different concentrations of each compound.
ERK1 and ERK8 were both assayed against myelin basic protein (MBP, 0.33 mg/ml). MARK3 was assayed against the peptide […] (300 μM), MNK2 against the eIF4E protein (0.5 mg/ml). PKBβ was assayed against the peptide […] (30 μM). TBK1 were assayed against ([…]) (300 μM). The substrates used for other protein kinases were described previously.^8,9
Unless stated otherwise, enzymes were diluted in 50 mM Tris/HCl pH 7.5, 0.1 mM EGTA, 1 mg/ml BSA, 0.1% (v/v) 2-mercaptoethanol and assayed in 50 mM Tris/HCl pH 7.5, 0.1 mM EGTA, 0.1% (v/v) 2-mercaptoethanol.
As for `O=C(NCCCNc1nc(Nc2cnn(C3CCC3)c2)ncc1C1CC1)C1CCC1` [Example 202, Cyclobutanecarboxylic acid {3-[2-(1-cyclobutyl-1H-pyrazol-4-ylamino)-5-cyclopropyl-pyrimidin-4-ylamino]-propyl}-amide], the concentration for half-maximal inhibition (IC50) was less than 100 nM. With `O=C(NCCCNc1nc(Nc2cccc(Cn3ccnc3)c2)ncc1C1CC1)C1CCC1` [Example 42, Cyclobutanecarboxylic acid {3-[5-cyclopropyl-2-(3-imidazol-1-ylmethyl-phenylamino)-pyrimidin-4-ylamino]-propyl}-amide] the figure was less than 100 nM. For the compound `O=C(NCCCNc1nc(Nc2ccc3[nH]c(=O)[nH]c3c2)ncc1C1CC1)C1CCC1` [Example 178, Cyclobutanecarboxylic acid {3-[5-cyclopropyl-2-(2-oxo-2,3-dihydro-1H-benzimidazol-5-ylamino)-pyrimidin-4-ylamino]-propyl}-amide], the 50% inhibitory concentration (IC50) was less than 100 nM. For `CN1CCN(c2ccc(Nc3ncc(C4CC4)c(NCCCNC(=O)C4CCC4)n3)cn2)CC1` [Example 43, Cyclobutanecarboxylic acid (3-{5-cyclopropyl-2-[6-(4-methyl-piperazin-1-yl)-pyridin-3-ylamino]-pyrimidin-4-ylamino}-propyl)-amide] the value was less than 100 nM; for `O=C(NCCCNc1nc(Nc2cnn(CCN3CCOCC3)c2)ncc1C1CC1)C1CCC1` [Example 155, Cyclobutanecarboxylic acid (3-{5-cyclopropyl-2-[1-(2-morpholin-4-yl-ethyl)-1H-pyrazol-4-ylamino]-pyrimidin-4-ylamino}-propyl)-amide], less than 100 nM. For `O=C(NCCCNc1nc(Nc2ccc(I)nc2)ncc1C1CC1)C1CCC1` [Example 98, Cyclobutanecarboxylic acid {3-[5-cyclopropyl-2-(6-iodo-pyridin-3-ylamino)-pyrimidin-4-ylamino]-propyl}-amide] the value was less than 100 nM. For `CN(CCN1CCOCC1)c1ccc(Nc2ncc(C3CC3)c(NCCCNC(=O)C3CCC3)n2)cn1` [Example 102, Cyclobutanecarboxylic acid [3-(5-cyclopropyl-2-{6-[methyl-(2-morpholin-4-yl-ethyl)-amino]-pyridin-3-ylamino}-pyrimidin-4-ylamino)-propyl]-amide] the value was less than 100 nM. With `CS(=O)(=O)Nc1cccc(Nc2ncc(C3CC3)c(NCCCNC(=O)c3cccs3)n2)c1` [Example 32, Thiophene-2-carboxylic acid {3-[5-cyclopropyl-2-(3-methanesulfonylamino-phenylamino)-pyrimidin-4-ylamino]-propyl}-amide trifluoroacetic acid salt], the concentration for half-maximal inhibition (IC50) is less than 100 nM. For `O=C(NCCCNc1nc(Nc2ccc(F)cc2)ncc1C1CC1)c1cccs1` [Example 58, Thiophene-2-carboxylic acid {3-[5-cyclopropyl-2-(4-fluoro-phenylamino)-pyrimidin-4-ylamino]-propyl}-amide] the value was 100 to 1000 nM; for `O=C(NCCCNc1nc(Nc2cccc(F)c2)ncc1C1CC1)C1CCOC1` (stereo not shown) [Example 14, Tetrahydro-furan-3-carboxylic acid {3-[5-cyclopropyl-2-(3-fluoro-phenylamino)-pyrimidin-4-ylamino]-propyl}-amide], less than 100 nM. With `Cn1cc(Nc2ncc(C3CC3)c(NCCCNC(=O)C3CCC3)n2)cn1` [Example 153, Cyclobutanecarboxylic acid {3-[5-cyclopropyl-2-(1-methyl-1H-pyrazol-4-ylamino)-pyrimidin-4-ylamino]-propyl}-amide] the figure was less than 100 nM; with `CN(C)CCN(C)C(=O)c1cccc(Nc2ncc(C3CC3)c(NCCCNC(=O)C3CCC3)n2)c1` [Example 76, 3-{4-[3-(Cyclobutanecarbonyl-amino)-propylamino]-5-cyclopropyl-pyrimidin-2-ylamino}-N-(2-dimethylamino-ethyl)-N-methyl-benzamide], less than 100 nM; with `O=C(NCCCNc1nc(Nc2cnc(N3CCOCC3)nc2)ncc1C1CC1)C1CCC1` [Example 152, Cyclobutanecarboxylic acid {3-[5-cyclopropyl-2-(2-morpholin-4-yl-pyrimidin-5-ylamino)-pyrimidin-4-ylamino]-propyl}-amide], less than 100 nM. With `CN(C)C1CCN(C(=O)Cc2cccc(Nc3ncc(C4CC4)c(NCCCNC(=O)C4CCC4)n3)c2)CC1` [Example 128, Cyclobutanecarboxylic acid [3-(5-cyclopropyl-2-{3-[2-(4-dimethylamino-piperidin-1-yl)-2-oxo-ethyl]-phenylamino}-pyrimidin-4-ylamino)-propyl]-amide] the figure was less than 100 nM; with `CN(CCCNc1nc(Nc2cccc(F)c2)ncc1C1CC1)C(=O)C1CCC1` [Example 107, Cyclobutanecarboxylic acid {3-[5-cyclopropyl-2-(3-fluoro-phenylamino)-pyrimidin-4-ylamino]-propyl}-methyl-amide], less than 100 nM. As for `O=C(NCCCNc1nc(Nc2ccc3nc[nH]c3c2)ncc1C1CC1)C1CCC1` [Example 96, Cyclobutanecarboxylic acid {3-[2-(3H-benzimidazol-5-ylamino)-5-cyclopropyl-pyrimidin-4-ylamino]-propyl}-amide], the half-inhibitory concentration (IC50) is less than 100 nM.

In the case of `O=C(NCCCNc1nc(Nc2ccc(-c3cn[nH]c3)nc2)ncc1C1CC1)C1CCC1` [Example 118, Cyclobutanecarboxylic acid (3-{5-cyclopropyl-2-[6-(1H-pyrazol-4-yl)-pyridin-3-ylamino]-pyrimidin-4-ylamino}-propyl)-amide], the half-inhibitory concentration (IC50) was less than 100 nM. For `Cn1ncc2cc(Nc3ncc(C4CC4)c(NCCCNC(=O)C4CCC4)n3)cnc21` [Example 200, Cyclobutanecarboxylic acid {3-[5-cyclopropyl-2-(1-methyl-1H-pyrazolo[3,4-b]pyridin-5-ylamino)-pyrimidin-4-ylamino]-propyl}-amide] the value was less than 100 nM. For `O=C(NCCCNc1nc(Nc2cccc(-n3cncn3)c2)ncc1C1CC1)C1CCC1` [Example 86, Cyclobutanecarboxylic acid (3-{5-cyclopropyl-2-[3-(2H-1,2,4-triazol-1-yl)-phenylamino]-pyrimidin-4-ylamino}-propyl)-amide] the value was less than 100 nM; for `CN(C)[C@H]1CCN(C(=O)c2cccc(Nc3ncc(C4CC4)c(NCCCNC(=O)C4CCC4)n3)c2)C1` [Example 125, Cyclobutanecarboxylic acid (3-{5-cyclopropyl-2-[3-((S)-3-dimethylamino-pyrrolidine-1-carbonyl)-phenylamino]-pyrimidin-4-ylamino}-propyl)-amide], less than 100 nM; for `O=C(NCCCNc1nc(Nc2cccnc2)ncc1C1CC1)C1CCC1` [Example 65, Cyclobutanecarboxylic acid {3-[5-cyclopropyl-2-(pyridin-3-ylamino)-pyrimidin-4-ylamino]-propyl}-amide], less than 100 nM. For `O=C(NCCCNc1nc(Nc2ccc3c(c2)CN(CCO)C3=O)ncc1C1CC1)C1CCC1` [Example 168, Cyclobutanecarboxylic acid (3-{5-cyclopropyl-2-[2-(2-hydroxy-ethyl)-1-oxo-2,3-dihydro-1H-isoindol-5-ylamino]-pyrimidin-4-ylamino}propyl)-amide] the value was less than 100 nM.

For the origin of these results see patent publication US20100056524A1, “Compound” (priority 2008, published 2010).
